For data set [1], the system named is MDCK cells co-expressing GFP-K-RASG12V and mCherry-CAAX. Kind of data set: Cytotoxicity in mislocalization screen (death of all cells in well). Conditions: drug caused death of all cells in well at 30 μM.
A further data set addresses mGFP-K-RASG12V (Homo sapiens (Human), UniProt P01116, G12V). Put plainly: K-Ras mislocalization assay (confocal microscopy, Manders coefficient). Set-up: key to Emax: Manders coefficient: fraction of mCherry-CAAX co-localizing with GFP-K-Ras. Type of data set: cell-based. The settings on record: for Emax: maximal effect, Manders coefficient; for Emax / EC50 / IC50: MDCK cells; for Emax / EC50: 48 h; for EC50: batch 4 compounds, title calls it IC50, read-out: EC50; for IC50: 48 h treatment, read-out: IC50 (μM), KRASG12V mislocalization. Put shortly: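 MDCK cells stably co-expressing mGFP-K-RASG12V and mCherry-CAAX (endomembrane marker) treated with compound or 0.1% DMSO for 48 h, fixed in 4% paraformaldehyde, imaged by confocal microscopy. Mislocalization quantified as the fraction of mCherry-CAAX co-localizing with mGFP-K-RASG12V (Manders coefficient) after 8-bit thresholding.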

The results in this text go back to patent US12043602B2, “Fendiline derivatives” (The Board of Regents of the University of Texas System, priority 2019, dated 2024).

Where two headings read alike, the source gives them in different places.

Take `CN1CCN(C(=O)[C@H](NCC=C(c2ccccc2)c2ccccc2)c2ccccc2)CC1` [NY0557, (R)-2-((3,3-diphenylallyl)amino)-1-(4-methylpiperazin-1-yl)-2-phenylethan-1-one]: the “Cytotoxic at 30 μM” value in data set [1] is reported as “No”. In addition, the Emax at mGFP-K-RASG12V was found to be 0.732.

As for `COC(=O)[C@H](CC(C)C)NC(=O)[C@H](NCC=C(c1ccccc1)c1ccccc1)c1ccccc1` [NY0566, methyl ((R)-2-((3,3-diphenylallyl)amino)-2-phenylacetyl)-L-leucinate], the “Cytotoxic at 30 μM” value in data set [1] is reported as “No”. In addition, at mGFP-K-RASG12V, the EC50 (commonly the concentration that produces a half-maximal response) is 5.93 µM and the Emax was determined as 0.718.

`CC(=O)NNC(=O)[C@H](NCC=C(c1ccccc1)c1ccccc1)c1ccccc1` [NY0568, (R)-N′-acetyl-2-((3,3-diphenylallyl)amino)-2-phenylacetohydrazide]: in data set [1], the “Cytotoxic at 30 μM” value was “No”. Moreover, the Emax on mGFP-K-RASG12V is on record as 0.364.

With `NC(=O)[C@H](NCC=C(c1ccccc1)c1ccccc1)c1ccccc1` [NY0569, (R)-2-((3,3-diphenylallyl)amino)-2-phenylacetamide], the “Cytotoxic at 30 μM” value in data set [1] is recorded as “No”. The Emax at mGFP-K-RASG12V stood at 0.321.

As to `Cc1nnc([C@H](NCC=C(c2ccccc2)c2ccccc2)c2ccccc2)o1` [NY0570, (R)-N-((5-methyl-1,3,4-oxadiazol-2-yl)(phenyl)methyl)-3,3-diphenylprop-2-en-1-amine], in data set [1], the “Cytotoxic at 30 μM” value is on record as “No”. At mGFP-K-RASG12V, this compound displayed an Emax of 0.397.

As for `C[C@@H](NCC(=O)N1c2ccccc2Sc2ccccc21)c1ccccc1` [NY0572, (R)-1-(10H-phenothiazin-10-yl)-2-((1-phenylethyl)amino)ethan-1-one], the “Cytotoxic at 30 μM” value in data set [1] was “No”. The compound further had an Emax on mGFP-K-RASG12V of 0.565.

Regarding `C[C@@H](NCC(=O)N1c2ccccc2Sc2ccccc21)c1ccc(F)cc1` [NY0573, (R)-2-((1-(4-fluorophenyl)ethyl)amino)-1-(10H-phenothiazin-10-yl)ethan-1-one], the “Cytotoxic at 30 μM” value in data set [1] is recorded as “No”. Moreover, on mGFP-K-RASG12V, the EC50 stood at 1.75 µM and the Emax worked out at 0.733.

In the case of `C[C@@H](NCCN1c2ccccc2Sc2ccccc21)c1ccccc1` [NY0574, (R)-N-(2-(10H-phenothiazin-10-yl)ethyl)-1-phenylethan-1-amine], the “Cytotoxic at 30 μM” value in data set [1] was “No”. For the same compound, at mGFP-K-RASG12V, the EC50 amounted to 4.82 µM and the Emax turned out to be 0.842.

With `C[C@@H](NCCN1c2ccccc2Sc2ccccc21)c1ccc(F)cc1` [NY0575, (R)-N-(2-(10H-phenothiazin-10-yl)ethyl)-1-(4-fluorophenyl)ethan-1-amine], the “Cytotoxic at 30 μM” value in data set [1] is reported as “No”. Further, at mGFP-K-RASG12V, the EC50 was 4.3 µM and the Emax amounted to 0.484.

Consider `C[C@@H](NCC(=O)N1c2ccccc2CCc2ccccc21)c1ccc(F)cc1` [NY0583, (R)-1-(10,11-dihydro-5H-dibenzo[b,f]azepin-5-yl)-2-((1-(4-fluorophenyl)ethyl)amino)ethan-1-one], for which the “Cytotoxic at 30 μM” value in data set [1] is “No”. On mGFP-K-RASG12V, the EC50 was 3.91 µM and the Emax is recorded as 0.725.

For the compound `C[C@@H](NCC(=O)N1c2ccccc2CCc2ccccc21)c1ccccc1` [NY0584, (R)-1-(10,11-dihydro-5H-dibenzo[b,f]azepin-5-yl)-2-((1-phenylethyl)amino)ethan-1-one], the “Cytotoxic at 30 μM” value in data set [1] is given as “No”. Besides, on mGFP-K-RASG12V, the EC50 is 6.94 µM and the Emax is on record as 0.697.

Consider `COc1ccc([C@@H](C)N(CC=C(c2ccccc2)c2ccccc2)CCN2CCN(C(=O)NC(C)(C)C)CC2)cc1` [NY0587, (R)-N-(tert-butyl)-4-(2-((3,3-diphenylallyl)(1-(4-methoxyphenyl)ethyl)amino)ethyl) piperazine-1-carboxamide], for which the “Cytotoxic at 30 μM” value in data set [1] was “No”. In addition, at mGFP-K-RASG12V, the EC50 came to 1.83 µM and the Emax was 0.827.

Consider `CCN1CCN(CCN(CC=C(c2ccccc2)c2ccccc2)[C@H](C)c2ccc(OC)cc2)CC1` [NY0589, (R)-N-(2-(4-ethylpiperazin-1-yl)ethyl)-N-(1-(4-methoxyphenyl)ethyl)-3,3-diphenylprop-2-en-1-amine], for which, in data set [1], the “Cytotoxic at 30 μM” value was “Yes”. Further, at mGFP-K-RASG12V, the EC50 worked out at 2.18 µM and the Emax stood at 0.895.

`COc1ccc([C@@H](C)N(CC=C(c2ccccc2)c2ccccc2)CCN2CCN(C(=O)C(C)F)CC2)cc1` (stereo partly drawn) [NY0591, 1-(4-(2-((3,3-diphenylallyl)((R)-1-(4-methoxyphenyl)ethyl)amino)ethyl)piperazin-1-yl)-2-fluoropropan-1-one]: the “Cytotoxic at 30 μM” value in data set [1] is “No”. Besides, at mGFP-K-RASG12V, the Emax is recorded as 0.825.

As to `C(CN(CCN1CCCC1)[C@@H]1C[C@H]1c1ccccc1)=C(c1ccccc1)c1ccccc1` [NY0592, (1R,2S)-N-(3,3-diphenylallyl)-2-phenyl-N-(2-(pyrrolidin-1-yl)ethyl)cyclopropan-1-amine], in data set [1], the “Cytotoxic at 30 μM” value was “Yes”. For the same compound, at mGFP-K-RASG12V, the EC50 was 5.6 µM and the Emax is reported as 0.685.

`COc1ccc([C@@H](C)N(CC=C(c2ccccc2)c2ccccc2)CCN2CCC2)cc1` [NY0593, (R)-N-(2-(azetidin-1-yl)ethyl)-N-(1-(4-methoxyphenyl)ethyl)-3,3-diphenylprop-2-en-1-amine]: the “Cytotoxic at 30 μM” value in data set [1] is on record as “Yes”. Besides, at mGFP-K-RASG12V, the IC50 (in general, the midpoint of a concentration-inhibition curve) is 0.5 µM; the half-maximal effective concentration (EC50) was determined as 0.492 µM; the Emax is recorded as 0.694. Moreover, the Emax at mGFP-K-RASG12V (listed as 12i) was 0.69 ± 0.02. Further, the “fold potency loss / decreased potency” value at mGFP-K-RASG12V (versus 12f (NY0244)) worked out at 5 fold.

`CCCN1CCN(CCN(CC=C(c2ccccc2)c2ccccc2)[C@H](C)c2ccc(OC)cc2)CC1` [NY0594, (R)-N-(2-(4-propylpiperazin-1-yl)ethyl)-N-(1-(4-methoxyphenyl)ethyl)-3,3-diphenylprop-2-en-1-amine]: the “Cytotoxic at 30 μM” value in data set [1] is listed as “Yes”. Besides, on mGFP-K-RASG12V, the EC50 is 3.26 µM and the Emax was determined as 0.75.

For `C(CN(CC=C(c1ccccc1)c1ccccc1)[C@@H]1C[C@H]1c1ccccc1)=C(c1ccccc1)c1ccccc1` [NY022601, (1R,2S)-N,N-bis(3,3-diphenylallyl)-2-phenylcyclopropanamine], in data set [1], the “Cytotoxic at 30 μM” value is “No”. Further, on mGFP-K-RASG12V, the IC50 came to 0.42 µM and the Emax came out at 0.713.

With `C(CN[C@@H]1C[C@H]1c1ccccc1)=C(c1ccccc1)c1ccccc1` [NY022602, (1R,2S)-N-(3,3-diphenylallyl)-2-phenylcyclopropanamine], the “Cytotoxic at 30 μM” value in data set [1] is “No”. Besides, on mGFP-K-RASG12V, the 50% inhibitory concentration (IC50) stood at 0.16 µM and the Emax amounted to 0.637.

`C[C@@H](CN(CC=C(c1ccccc1)c1ccccc1)CC=C(c1ccccc1)c1ccccc1)c1ccccc1` [NY022701, (R)-N-(3,3-diphenylallyl)-3,3-diphenyl-N-(2-phenylpropyl)prop-2-en-1-amine]: the “Cytotoxic at 30 μM” value in data set [1] is recorded as “No”. Besides, the Emax at mGFP-K-RASG12V is on record as 0.494.

Take `C[C@@H](CNCC=C(c1ccccc1)c1ccccc1)c1ccccc1` [NY022702, (R)-3,3-diphenyl-N-(2-phenylpropyl)prop-2-en-1-amine]: the “Cytotoxic at 30 μM” value in data set [1] is given as “No”. Further, at mGFP-K-RASG12V, the IC50 turned out to be 16.9 µM and the Emax is reported as 0.608.

Take `C(CN(CC=C(c1ccccc1)c1ccccc1)C1(c2ccccc2)CC1)=C(c1ccccc1)c1ccccc1` [NY040401, N,N-bis(3,3-diphenylallyl)-1-phenylcyclopropanamine]: the “Cytotoxic at 30 μM” value in data set [1] is “No”. Moreover, at mGFP-K-RASG12V, the IC50 stood at 1.46 µM and the Emax amounted to 0.778.

Turning to `COC(=O)[C@@H](c1ccccc1)N(CC=C(c1ccccc1)c1ccccc1)CC=C(c1ccccc1)c1ccccc1` [NY055101, methyl (R)-2-(bis(3,3-diphenylallyl)amino)-2-phenylacetate], the “Cytotoxic at 30 μM” value in data set [1] is reported as “Yes”. Further, at mGFP-K-RASG12V, the EC50 was 8.91 µM and the Emax is reported as 0.424.

Take `COC(=O)[C@H](NCC=C(c1ccccc1)c1ccccc1)c1ccccc1` [NY055102, Methyl (R)-2-((3,3-diphenylallyl)amino)-2-phenylacetate]: in data set [1], the “Cytotoxic at 30 μM” value is “No”. In addition, the Emax on mGFP-K-RASG12V worked out at 0.424.

In the case of `COc1ccc([C@@H](C)N(CC=C(c2ccccc2)c2ccccc2)C(=O)CN2CCCC2)cc1` [PW124, (R)-N-(3,3-diphenylallyl)-N-(1-(4-methoxyphenyl)ethyl)-2-(pyrrolidin-1-yl)acetamide], in data set [1], the “Cytotoxic at 30 μM” value was “Yes”. Further, on mGFP-K-RASG12V, the half-inhibitory concentration (IC50) worked out at 0.553 µM and the Emax was 0.452.

`COc1ccc([C@@H](C)N(CC=C(c2ccccc2)c2ccccc2)C(=O)CN2CCN(C)CC2)cc1` [PW125, (R)-N-(3,3-diphenylallyl)-N-(1-(4-methoxyphenyl)ethyl)-2-(4-methylpiperazin-1-yl)acetamide]: the “Cytotoxic at 30 μM” value in data set [1] was “Yes”. Moreover, the IC50 at mGFP-K-RASG12V (listed as 20) came to 7.1 µM; on mGFP-K-RASG12V, 7.09 µM. Moreover, the figures for the Emax at mGFP-K-RASG12V and on mGFP-K-RASG12V (listed as 20) were 0.514 and 0.51 ± 0.02, respectively.

For the compound `COc1ccc([C@@H](C)N(CC=C(c2ccccc2)c2ccccc2)C(=O)CN2CCC(O)CC2)cc1` [PW126, (R)-N-(3,3-diphenylallyl)-2-(4-hydroxypiperidin-1-yl)-N-(1-(4-methoxyphenyl)ethyl)acetamide], the “Cytotoxic at 30 μM” value in data set [1] was “Yes”. Besides, at mGFP-K-RASG12V, the IC50 stood at 2.19 µM and the Emax is on record as 0.412.

For the compound `O=C(c1ccc(F)cc1)N(CC=C(c1ccccc1)c1ccccc1)CCN1CCCC1` [PW276, N-(3,3-diphenylallyl)-4-fluoro-N-(2-(pyrrolidin-1-yl)ethyl)benzamide], the “Cytotoxic at 30 μM” value in data set [1] is “Yes”. Moreover, on mGFP-K-RASG12V, the IC50 stood at 4.8 µM and the Emax is 0.572.
